Data published in PMC2846458 (Nature medicine, 2008).
Where a chain is given by its changes, count along the chain named. pIC50: −log10 of the molar value.

Assays:
TGF-β signaling = test: Immunoblot of TGF-β signaling in PASMCs; assay type: cell-based; conditions: Mus musculus, PASMC, read-out: IC50 for TGF-β signaling
ALK2^R206H = target: T1, ALK2^R206H (Homo sapiens, UniProt Q04771, R206H); test: Id1 promoter activity; assay type: cell-based
T1 sequence (Q04771 21-509 R206H): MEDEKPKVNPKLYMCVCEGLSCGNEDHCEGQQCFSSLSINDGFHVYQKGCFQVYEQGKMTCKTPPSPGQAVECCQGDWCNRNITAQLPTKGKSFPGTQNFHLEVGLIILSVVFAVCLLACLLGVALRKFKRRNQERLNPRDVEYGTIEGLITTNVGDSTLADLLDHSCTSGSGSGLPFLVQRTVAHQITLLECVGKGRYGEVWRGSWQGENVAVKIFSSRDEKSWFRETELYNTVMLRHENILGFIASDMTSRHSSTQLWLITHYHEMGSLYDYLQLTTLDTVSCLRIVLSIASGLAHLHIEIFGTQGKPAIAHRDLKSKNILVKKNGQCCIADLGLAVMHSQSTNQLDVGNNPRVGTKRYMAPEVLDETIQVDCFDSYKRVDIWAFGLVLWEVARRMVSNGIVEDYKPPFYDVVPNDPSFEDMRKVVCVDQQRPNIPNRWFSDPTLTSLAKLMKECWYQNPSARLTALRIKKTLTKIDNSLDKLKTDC

ALK2^Q207D = target: T2, ALK2^Q207D (Homo sapiens, UniProt Q04771, Q207D); test: Id1 promoter activity; assay type: cell-based
T2 sequence (Q04771 21-509 Q207D): T1 sequence (Q04771 21-509 R206H) with H186R, Q187D

C2C12 cells = test: BMP4-induced alkaline phosphatase activity; assay type: cell-based; conditions: 100 nM, BMP4 10 ng ml^-1, even when administered 12 h after BMP stimulation
[1] = tested on: Ad.Cre-injected conditional caALK2–transgenic mice; test: Ectopic ossification in Ad.Cre-injected conditional caALK2-transgenic mice; assay type: in vivo, mouse
[2] = Tolerability of treatment in mice
[3] = 3 mg kg^-1 i.p. every 12 h, lesions attenuated in the remainder

SMILES	pIC50 (TGF-β signaling)	effect on transcriptional activity induced by ALK2^R206H (ALK2^R206H)	effect on transcriptional activity induced by ALK2^Q207D (ALK2^Q207D)	effect on induction of alkaline phosphatase activity by BMP4 (C2C12 cells)	endochondral bone in hindlimbs (histology) ([1]; 3 mg kg^-1 i.p. every 12 h)	phosphorylated Smad1/5/8 and Runx2 staining in left gastrocnemius ([1]; 3 mg kg^-1 i.p. every 12 h, P11)	passive range of motion in the ankle joint ([1]; 3 mg kg^-1 i.p. every 12 h, P15 and P30, versus vehicle)	fraction of mice in which ectopic bone was prevented at P30 [1, 3]	fraction of mice in which ectopic bone was prevented at P60 [1, 3]	radiographic lesions at P15 ([1]; 3 mg kg^-1 i.p. every 12 h after Ad.Cre on P7)	fractures, osteopenia, skeletal abnormalities ([2]; 3 mg kg^-1 i.p. every 12 h, up to P60)	ectopic calcifications and immobility at P30 ([1]; 10 mg kg^-1 d^-1 i.p. starting 1 d after Ad.Cre at P7, versus vehicle)	effect on weight and growth ([2]; wild-type or mutant mice, during drug administration)
c1ccc2c(-c3cnn4cc(-c5ccc(N6CCNCC6)cc5)cnc34)ccnc2c1 [LDN-193189, 4-[6-(4-piperazin-1-ylphenyl)pyrazolo[1,5-a]pyrimidin-3-yl]quinoline]	≤ 6.00	blocked the transcriptional activity	blocked the transcriptional activity	inhibited the induction of alkaline phosphatase activity	substantially less endochondral bone	diminished	significant rescue of function	approximately two-thirds	one-third	prevented radiographic lesions at P15 in all mice examined	without inducing fractures, osteopenia or skeletal abnormalities	–	–
C[C@@H]1C[C@H]2[C@@H]3CCC4=CC(=O)C=C[C@]4(C)[C@@]3(F)[C@@H](O)C[C@]2(C)[C@@]1(O)C(=O)CO [dexamethasone, reference compound]	–	–	–	–	–	–	–	–	–	–	–	markedly reduced	severely impaired weight gain
